Data taken from ChEMBL document CHEMBL4507280 (2021).

How the values were obtained:
[1] = molecular target: Serine/threonine-protein kinase PAK 5 (Homo sapiens) (UniProt Q9P286); conditions: Compound concentration 1000.0 nM
[2] = molecular target: Inhibitor of nuclear factor kappa-B kinase subunit beta (Homo sapiens) (UniProt O14920); conditions: Compound concentration 1000.0 nM
[3] = molecular target: Serine/threonine-protein kinase Sgk1 (Homo sapiens) (UniProt O00141); conditions: Compound concentration 1000.0 nM
[4] = molecular target: Sigma non-opioid intracellular receptor 1 (Homo sapiens) (UniProt Q99720); conditions: Compound concentration 10.0 uM
[5] = molecular target: Beta-3 adrenergic receptor (Homo sapiens) (UniProt P13945); conditions: Compound concentration 10.0 uM
[6] = molecular target: LIM domain kinase 2 (Homo sapiens) (UniProt P53671); conditions: Compound concentration 1000.0 nM
Chain of LIM domain kinase 2 (Homo sapiens) (P53671 whole entry, looked up, the tested form may be a part): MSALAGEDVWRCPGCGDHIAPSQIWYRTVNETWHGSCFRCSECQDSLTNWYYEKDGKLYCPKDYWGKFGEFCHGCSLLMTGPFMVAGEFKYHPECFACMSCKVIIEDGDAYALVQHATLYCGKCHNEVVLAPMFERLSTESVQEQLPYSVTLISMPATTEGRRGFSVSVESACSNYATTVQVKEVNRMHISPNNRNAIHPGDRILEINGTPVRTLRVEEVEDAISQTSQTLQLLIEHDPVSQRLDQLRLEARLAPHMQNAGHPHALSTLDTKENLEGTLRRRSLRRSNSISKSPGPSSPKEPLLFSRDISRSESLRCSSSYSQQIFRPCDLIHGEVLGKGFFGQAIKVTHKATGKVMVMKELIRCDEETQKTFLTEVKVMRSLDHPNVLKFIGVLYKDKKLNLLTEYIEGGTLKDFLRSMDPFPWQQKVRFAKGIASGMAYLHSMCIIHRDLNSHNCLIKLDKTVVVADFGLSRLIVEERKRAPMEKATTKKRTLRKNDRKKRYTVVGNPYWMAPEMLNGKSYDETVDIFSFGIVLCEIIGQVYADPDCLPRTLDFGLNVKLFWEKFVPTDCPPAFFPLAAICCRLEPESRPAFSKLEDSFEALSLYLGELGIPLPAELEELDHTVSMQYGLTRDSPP

[7] = molecular target: Tyrosine-protein kinase Fer (Homo sapiens) (UniProt P16591); conditions: Compound concentration 1000.0 nM
[8] = species on record: Rattus norvegicus; conditions: Compound concentration 10.0 uM
[9] = molecular target: Tyrosine-protein kinase ITK/TSK (Homo sapiens) (UniProt Q08881); conditions: Compound concentration 1000.0 nM
[10] = molecular target: Casein kinase I isoform gamma-3 (Homo sapiens) (UniProt Q9Y6M4); conditions: Compound concentration 1000.0 nM
[11] = molecular target: Serine/threonine-protein kinase pim-2 (Homo sapiens) (UniProt Q9P1W9); conditions: Compound concentration 1000.0 nM
Chain of Serine/threonine-protein kinase pim-2 (Homo sapiens) (Q9P1W9 whole entry, looked up): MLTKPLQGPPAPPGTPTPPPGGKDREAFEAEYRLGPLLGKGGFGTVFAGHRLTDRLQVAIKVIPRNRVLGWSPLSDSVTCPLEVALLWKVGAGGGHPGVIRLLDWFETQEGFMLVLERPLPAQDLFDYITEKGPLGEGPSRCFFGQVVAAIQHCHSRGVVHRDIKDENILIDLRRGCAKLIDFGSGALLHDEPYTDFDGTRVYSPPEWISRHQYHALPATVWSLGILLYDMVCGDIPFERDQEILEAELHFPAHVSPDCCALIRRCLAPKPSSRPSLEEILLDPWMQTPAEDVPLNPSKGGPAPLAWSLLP

[12] = molecular target: Interleukin-1 receptor-associated kinase 3 (Homo sapiens) (UniProt Q9Y616); conditions: Compound concentration 1000.0 nM
Chain of Interleukin-1 receptor-associated kinase 3 (Homo sapiens) (Q9Y616 whole entry): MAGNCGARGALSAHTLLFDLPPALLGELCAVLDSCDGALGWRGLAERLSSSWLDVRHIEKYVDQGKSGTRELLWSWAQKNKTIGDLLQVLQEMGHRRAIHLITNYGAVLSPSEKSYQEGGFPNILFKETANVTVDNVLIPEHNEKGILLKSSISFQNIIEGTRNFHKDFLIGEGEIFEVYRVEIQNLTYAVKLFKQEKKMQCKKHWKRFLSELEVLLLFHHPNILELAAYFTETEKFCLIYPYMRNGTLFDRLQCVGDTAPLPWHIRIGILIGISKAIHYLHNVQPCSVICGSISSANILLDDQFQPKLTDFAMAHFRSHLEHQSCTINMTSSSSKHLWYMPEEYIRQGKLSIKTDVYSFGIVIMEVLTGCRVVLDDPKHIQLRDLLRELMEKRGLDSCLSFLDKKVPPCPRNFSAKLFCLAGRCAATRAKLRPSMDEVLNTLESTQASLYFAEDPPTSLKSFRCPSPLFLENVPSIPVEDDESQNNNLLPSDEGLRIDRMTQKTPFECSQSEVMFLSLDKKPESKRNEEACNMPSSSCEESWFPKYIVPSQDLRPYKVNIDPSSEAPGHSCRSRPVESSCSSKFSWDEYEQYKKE

[13] = molecular target: Serine/threonine-protein kinase PAK 4 (Homo sapiens) (UniProt O96013); conditions: Compound concentration 1000.0 nM
[14] = molecular target: Myotonin-protein kinase (Homo sapiens) (UniProt Q09013); conditions: Compound concentration 1000.0 nM
[15] = molecular target: Tyrosine-protein kinase ZAP-70 (Homo sapiens) (UniProt P43403); conditions: Compound concentration 1000.0 nM
[16] = molecular target: RAC-gamma serine/threonine-protein kinase (Homo sapiens) (UniProt Q9Y243); conditions: Compound concentration 1000.0 nM
Chain of RAC-gamma serine/threonine-protein kinase (Homo sapiens) (Q9Y243 whole entry): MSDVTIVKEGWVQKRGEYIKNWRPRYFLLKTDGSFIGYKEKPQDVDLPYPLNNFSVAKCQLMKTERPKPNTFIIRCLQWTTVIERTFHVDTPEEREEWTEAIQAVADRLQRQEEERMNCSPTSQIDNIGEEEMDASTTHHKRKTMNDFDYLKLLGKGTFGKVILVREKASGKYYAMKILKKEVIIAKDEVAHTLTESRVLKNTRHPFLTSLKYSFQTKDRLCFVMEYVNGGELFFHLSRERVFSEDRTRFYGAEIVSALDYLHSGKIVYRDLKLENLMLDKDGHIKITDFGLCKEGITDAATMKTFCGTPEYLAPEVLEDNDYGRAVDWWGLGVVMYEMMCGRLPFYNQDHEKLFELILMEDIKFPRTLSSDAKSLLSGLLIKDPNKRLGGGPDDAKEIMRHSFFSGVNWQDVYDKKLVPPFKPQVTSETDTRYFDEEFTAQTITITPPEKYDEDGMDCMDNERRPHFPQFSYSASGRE

[17] = molecular target: Serine/threonine-protein kinase TNNI3K (Homo sapiens) (UniProt Q59H18); conditions: Compound concentration 1000.0 nM
[18] = molecular target: Phosphatidylinositol 4,5-bisphosphate 3-kinase catalytic subunit alpha isoform (Homo sapiens) (UniProt P42336); conditions: Compound concentration 1000.0 nM
[19] = molecular target: Cyclin-dependent kinase 15 (Homo sapiens) (UniProt Q96Q40); conditions: Compound concentration 1000.0 nM
[20] = molecular target: Mitogen-activated protein kinase kinase kinase 4 (Homo sapiens) (UniProt Q9Y6R4); conditions: Compound concentration 1000.0 nM
[21] = molecular target: Cyclin-dependent kinase 14 (Homo sapiens) (UniProt O94921); conditions: Compound concentration 1000.0 nM
Chain of Cyclin-dependent kinase 14 (Homo sapiens) (O94921 whole entry): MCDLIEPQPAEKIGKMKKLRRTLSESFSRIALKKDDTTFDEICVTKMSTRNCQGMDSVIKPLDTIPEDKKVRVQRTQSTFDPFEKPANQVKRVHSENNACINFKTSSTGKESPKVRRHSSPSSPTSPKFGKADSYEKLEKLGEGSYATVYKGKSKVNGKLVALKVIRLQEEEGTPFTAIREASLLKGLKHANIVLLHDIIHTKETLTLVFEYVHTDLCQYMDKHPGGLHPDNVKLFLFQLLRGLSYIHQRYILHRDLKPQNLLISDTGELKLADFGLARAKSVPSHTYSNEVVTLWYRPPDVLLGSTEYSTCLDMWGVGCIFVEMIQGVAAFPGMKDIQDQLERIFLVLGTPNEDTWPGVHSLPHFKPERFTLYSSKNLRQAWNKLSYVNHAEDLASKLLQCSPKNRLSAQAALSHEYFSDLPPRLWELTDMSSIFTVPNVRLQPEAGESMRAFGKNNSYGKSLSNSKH

[22] = molecular target: Insulin receptor (Homo sapiens) (UniProt P06213); conditions: Compound concentration 1000.0 nM
[23] = molecular target: Beta-adrenergic receptor kinase 1 (Homo sapiens) (UniProt P25098); conditions: Compound concentration 1000.0 nM
[24] = test system: Phosphatidylinositol 4,5-bisphosphate 3-kinase catalytic subunit alpha isoform (Homo sapiens), P42336 [H1047Y]; conditions: Compound concentration 1000.0 nM
[25] = molecular target: Serine/threonine-protein kinase N2 (Homo sapiens) (UniProt Q16513); conditions: Compound concentration 1000.0 nM
[26] = molecular target: Casein kinase I isoform alpha (Homo sapiens) (UniProt P48729); conditions: Compound concentration 1000.0 nM
[27] = molecular target: Alpha-2C adrenergic receptor (Homo sapiens) (UniProt P18825); conditions: Compound concentration 10.0 uM
Chain of Alpha-2C adrenergic receptor (Homo sapiens) (P18825 whole entry): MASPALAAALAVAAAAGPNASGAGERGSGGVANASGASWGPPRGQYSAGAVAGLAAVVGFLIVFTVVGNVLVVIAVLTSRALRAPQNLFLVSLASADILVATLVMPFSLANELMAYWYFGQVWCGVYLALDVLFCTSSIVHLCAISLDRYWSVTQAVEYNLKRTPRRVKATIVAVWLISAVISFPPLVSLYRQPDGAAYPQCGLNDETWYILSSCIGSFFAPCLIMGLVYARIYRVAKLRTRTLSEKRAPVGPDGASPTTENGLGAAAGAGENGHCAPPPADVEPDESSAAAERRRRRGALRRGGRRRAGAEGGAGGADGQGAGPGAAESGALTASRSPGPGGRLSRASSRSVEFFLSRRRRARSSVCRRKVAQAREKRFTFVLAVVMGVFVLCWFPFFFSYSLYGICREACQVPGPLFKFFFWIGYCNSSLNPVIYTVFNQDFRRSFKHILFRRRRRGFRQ

[28] = molecular target: Protein kinase C eta type (Homo sapiens) (UniProt P24723); conditions: Compound concentration 1000.0 nM
[29] = molecular target: Casein kinase II subunit alpha' (Homo sapiens) (UniProt P19784); conditions: Compound concentration 1000.0 nM
[30] = molecular target: Ribosomal protein S6 kinase alpha-1 (Homo sapiens) (UniProt Q15418); conditions: Compound concentration 1000.0 nM
[31] = molecular target: Histamine H1 receptor (Homo sapiens) (UniProt P35367); conditions: Compound concentration 10.0 uM
[32] = molecular target: Tyrosine-protein kinase CSK (Homo sapiens) (UniProt P41240); conditions: Compound concentration 1000.0 nM
[33] = molecular target: STE20/SPS1-related proline-alanine-rich protein kinase (Homo sapiens) (UniProt Q9UEW8); conditions: Compound concentration 1000.0 nM
[34] = molecular target: Ephrin type-A receptor 8 (Homo sapiens) (UniProt P29322); conditions: Compound concentration 1000.0 nM
[35] = molecular target: Death-associated protein kinase 2 (Homo sapiens) (UniProt Q9UIK4); conditions: Compound concentration 1000.0 nM
[36] = molecular target: Epidermal growth factor receptor (Homo sapiens) (UniProt P00533); conditions: Compound concentration 1000.0 nM
Chain of Epidermal growth factor receptor (Homo sapiens) (P00533 whole entry, canonical isoform): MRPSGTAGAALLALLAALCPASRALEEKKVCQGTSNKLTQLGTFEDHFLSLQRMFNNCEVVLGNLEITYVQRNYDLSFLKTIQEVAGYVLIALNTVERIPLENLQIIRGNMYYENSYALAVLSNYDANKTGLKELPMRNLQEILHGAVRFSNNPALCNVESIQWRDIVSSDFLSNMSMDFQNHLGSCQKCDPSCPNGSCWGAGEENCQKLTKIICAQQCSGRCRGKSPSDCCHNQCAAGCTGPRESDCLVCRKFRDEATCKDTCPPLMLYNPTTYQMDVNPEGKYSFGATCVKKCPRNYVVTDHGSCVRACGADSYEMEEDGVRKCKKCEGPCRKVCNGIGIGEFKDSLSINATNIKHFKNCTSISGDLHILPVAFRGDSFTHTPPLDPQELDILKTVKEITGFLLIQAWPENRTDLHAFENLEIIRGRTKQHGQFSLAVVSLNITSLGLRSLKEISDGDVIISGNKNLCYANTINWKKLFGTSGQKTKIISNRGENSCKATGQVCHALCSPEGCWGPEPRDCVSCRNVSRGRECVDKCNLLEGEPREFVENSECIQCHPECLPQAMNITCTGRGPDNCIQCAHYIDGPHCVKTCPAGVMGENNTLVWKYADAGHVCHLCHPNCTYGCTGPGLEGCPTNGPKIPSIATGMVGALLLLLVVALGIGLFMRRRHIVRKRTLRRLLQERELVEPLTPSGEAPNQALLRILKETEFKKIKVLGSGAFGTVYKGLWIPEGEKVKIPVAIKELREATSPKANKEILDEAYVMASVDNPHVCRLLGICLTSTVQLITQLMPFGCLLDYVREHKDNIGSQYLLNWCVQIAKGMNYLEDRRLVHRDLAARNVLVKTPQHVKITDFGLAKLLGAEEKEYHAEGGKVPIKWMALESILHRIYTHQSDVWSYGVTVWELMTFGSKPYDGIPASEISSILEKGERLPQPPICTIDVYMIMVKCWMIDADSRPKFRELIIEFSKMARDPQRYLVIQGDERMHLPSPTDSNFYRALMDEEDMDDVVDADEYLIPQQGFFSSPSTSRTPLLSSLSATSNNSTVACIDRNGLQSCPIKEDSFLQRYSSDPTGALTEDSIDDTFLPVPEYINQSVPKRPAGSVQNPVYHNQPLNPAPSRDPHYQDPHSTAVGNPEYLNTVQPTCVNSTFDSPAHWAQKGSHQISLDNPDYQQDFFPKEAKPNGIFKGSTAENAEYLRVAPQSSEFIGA

[37] = molecular target: Phosphatidylinositol 4,5-bisphosphate 3-kinase catalytic subunit delta isoform (Homo sapiens) (UniProt O00329); conditions: Compound concentration 1000.0 nM
[38] = molecular target: Serine/threonine-protein kinase DCLK1 (Homo sapiens) (UniProt O15075); conditions: Compound concentration 1000.0 nM
[39] = molecular target: Phosphatidylinositol 4-kinase beta (Homo sapiens) (UniProt Q9UBF8); conditions: Compound concentration 1000.0 nM
Chain of Phosphatidylinositol 4-kinase beta (Homo sapiens) (Q9UBF8 2-816 limits assumed): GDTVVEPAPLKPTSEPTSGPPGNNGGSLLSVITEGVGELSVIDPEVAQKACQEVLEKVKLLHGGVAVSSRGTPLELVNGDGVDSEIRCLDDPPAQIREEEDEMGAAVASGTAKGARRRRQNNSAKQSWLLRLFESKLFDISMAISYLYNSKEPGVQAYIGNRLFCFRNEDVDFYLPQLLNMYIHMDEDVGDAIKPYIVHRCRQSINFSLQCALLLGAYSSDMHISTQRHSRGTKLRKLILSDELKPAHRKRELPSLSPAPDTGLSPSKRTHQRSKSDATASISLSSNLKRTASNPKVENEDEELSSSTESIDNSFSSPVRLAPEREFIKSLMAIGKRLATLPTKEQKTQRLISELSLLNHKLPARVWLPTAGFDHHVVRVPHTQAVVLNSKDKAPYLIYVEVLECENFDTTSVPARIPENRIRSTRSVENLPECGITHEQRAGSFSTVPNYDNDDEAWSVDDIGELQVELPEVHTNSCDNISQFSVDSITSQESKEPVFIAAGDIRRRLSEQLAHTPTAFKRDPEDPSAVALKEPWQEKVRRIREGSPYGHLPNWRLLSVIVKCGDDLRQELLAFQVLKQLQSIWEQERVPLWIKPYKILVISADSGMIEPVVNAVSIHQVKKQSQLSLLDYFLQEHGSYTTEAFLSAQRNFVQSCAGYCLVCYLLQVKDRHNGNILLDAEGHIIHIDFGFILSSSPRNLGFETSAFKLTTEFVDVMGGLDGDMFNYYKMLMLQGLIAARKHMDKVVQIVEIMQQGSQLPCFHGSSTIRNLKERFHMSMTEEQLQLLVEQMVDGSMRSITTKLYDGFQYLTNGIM

[40] = molecular target: Aurora kinase C (Homo sapiens) (UniProt Q9UQB9); conditions: Compound concentration 1000.0 nM
[41] = molecular target: D(3) dopamine receptor (Homo sapiens) (UniProt P35462); conditions: Compound concentration 10.0 uM
[42] = molecular target: Homeodomain-interacting protein kinase 1 (Homo sapiens) (UniProt Q86Z02); conditions: Compound concentration 1000.0 nM
[43] = molecular target: Ephrin type-A receptor 3 (Homo sapiens) (UniProt P29320); conditions: Compound concentration 1000.0 nM
[44] = molecular target: Serine/threonine-protein kinase MARK1 (Homo sapiens) (UniProt Q9P0L2); conditions: Compound concentration 1000.0 nM
[45] = molecular target: 5-hydroxytryptamine receptor 2A (Homo sapiens) (UniProt P28223); conditions: Compound concentration 10.0 uM
[46] = molecular target: Homeodomain-interacting protein kinase 2 (Homo sapiens) (UniProt Q9H2X6); conditions: Compound concentration 1000.0 nM

CCC(=O)N[C@H]1CC[C@@H](C(=O)N(C)c2ccc(-c3nc4ccccc4o3)cc2)C1 [BI 99179]
inactive: residual activity [1] 100% | residual activity [2] 90% | residual activity [3] 100% | inhibition [4] 9.78% | inhibition [5] 34.9% | residual activity [6] 100% | residual activity [7] 90% | inhibition [8] 3.17% | residual activity [9] 100% | residual activity [10] 99% | residual activity [11] 100% | residual activity [12] 85% | residual activity [13] 100% | residual activity [14] 100% | residual activity [15] 82% | residual activity [16] 100% | residual activity [17] 100% | residual activity [18] 94% | residual activity [19] 89% | residual activity [20] 100% | residual activity [21] 92% | residual activity [22] 91% | residual activity [23] 66% | residual activity [24] 97% | residual activity [25] 100% | residual activity [26] 82% | inhibition [27] -5.31% | residual activity [28] 96% | residual activity [29] 100% | residual activity [30] 100% | inhibition [31] 20.9% | residual activity [32] 100% | residual activity [33] 100% | residual activity [34] 96% | residual activity [35] 100% | residual activity [36] 100% | residual activity [37] 100% | residual activity [38] 100% | residual activity [39] 77% | residual activity [40] 100% | inhibition [41] 12.1% | residual activity [42] 80% | residual activity [43] 100% | residual activity [44] 100% | inhibition [45] 2.34% | residual activity [46] 79%

CCC(=O)N[C@@H]1CC[C@H](C(=O)N(C)c2ccc(-c3nc4ccccc4o3)cc2)C1 [BI 99990]
inactive: residual activity [1] 100% | residual activity [2] 100% | residual activity [3] 100% | inhibition [4] 38.3% | inhibition [5] -2.82% | residual activity [6] 100% | residual activity [7] 99% | inhibition [8] 5.21% | residual activity [9] 100% | residual activity [10] 100% | residual activity [11] 100% | residual activity [12] 100% | residual activity [13] 100% | residual activity [14] 100% | residual activity [15] 100% | residual activity [16] 100% | residual activity [17] 99% | residual activity [18] 88% | residual activity [19] 100% | residual activity [20] 83% | residual activity [21] 100% | residual activity [22] 93% | residual activity [23] 100% | residual activity [24] 100% | residual activity [25] 100% | residual activity [26] 100% | inhibition [27] -2.55% | residual activity [28] 95% | residual activity [29] 100% | residual activity [30] 100% | inhibition [31] 18.6% | residual activity [32] 100% | residual activity [33] 73% | residual activity [34] 100% | residual activity [35] 100% | residual activity [36] 100% | residual activity [37] 100% | residual activity [38] 88% | residual activity [39] 100% | residual activity [40] 100% | inhibition [41] 4.36% | residual activity [42] 87% | residual activity [43] 100% | residual activity [44] 86% | inhibition [45] -9.08% | residual activity [46] 100%
